Source: article PMC11769294, “(E)-1-(3-(3-Hydroxy-4-Methoxyphenyl)-1-(3,4,5-Trimethoxyphenyl)allyl)-1H-1,2,4-Triazole and Related Compounds: Their Synthesis and Biological Evaluation as Novel Antimitotic Agents Targeting Breast Cancer” (Pharmaceuticals, 2025)
Where two headings read alike, the source gives them in different places.

Tests used:
Type in all cases: cell-based, human
[1] = system: NCI 60 cancer cell line panel; assay: NCI60 screen (SRB), all cell lines; settings: for mean growth percent: over the 60-cell line panel, one dose 10 µM
[2] = system: breast cancer panel; assay: NCI60 screen (SRB), panel mean; settings: BC panel; one dose 10 µM; 48 h
[3] = system: leukemia panel; assay: NCI60 screen (SRB), panel mean; settings: one dose 10 µM, 48 h
[4] = system: MOLT-4 (Leukemia); assay: NCI60 screen (SRB); settings: one dose 10 µM, 48 h
[5] = system: SR (Leukemia); assay: NCI60 screen (SRB); settings: 48 h; for growth percent: one dose 10 µM
[6] = system: A549/ATCC (Non-Small Cell Lung Cancer); assay: NCI60 screen (SRB); settings: 48 h; for growth percent: one dose 10 µM
[7] = system: EKVX (Non-Small Cell Lung Cancer); assay: NCI60 screen (SRB); settings: 48 h; for growth percent: one dose 10 µM
[8] = system: HOP-92 (Non-Small Cell Lung Cancer); assay: NCI60 screen (SRB); settings: 48 h; for growth percent: one dose 10 µM
[9] = system: NCI-H322M (Non-Small Cell Lung Cancer); assay: NCI60 screen (SRB); settings: 48 h; for growth percent: one dose 10 µM
[10] = system: NCI-H460 (Non-Small Cell Lung Cancer); assay: NCI60 screen (SRB); settings: for GI50: five-dose; for growth percent: one dose 10 µM
[11] = system: NCI-H522 (Non-Small Cell Lung Cancer); assay: NCI60 screen (SRB); settings: for GI50: five-dose; for growth percent: one dose 10 µM
[12] = system: COLO 205 (Colon Cancer); assay: NCI60 screen (SRB); settings: 48 h; for growth percent: one dose 10 µM
[13] = system: HCC-2998 (Colon Cancer); assay: NCI60 screen (SRB); settings: 48 h; for growth percent: one dose 10 µM
[14] = system: HCT-116 (Colon Cancer); assay: NCI60 screen (SRB); settings: 48 h; for growth percent: one dose 10 µM
[15] = system: HT29 (Colon Cancer); assay: NCI60 screen (SRB); settings: 48 h; for growth percent: one dose 10 µM
[16] = system: KM12 (Colon Cancer); assay: NCI60 screen (SRB); settings: 48 h; for growth percent: one dose 10 µM
[17] = system: SW-620 (Colon Cancer); assay: NCI60 screen (SRB); settings: for GI50: five-dose; for growth percent: one dose 10 µM
[18] = system: SF-295 (CNS Cancer); assay: NCI60 screen (SRB); settings: 48 h; for growth percent: one dose 10 µM
[19] = system: SF-539 (CNS Cancer); assay: NCI60 screen (SRB); settings: 48 h; for growth percent: one dose 10 µM
[20] = system: SNB-19 (CNS Cancer); assay: NCI60 screen (SRB); settings: 48 h; for growth percent: one dose 10 µM
[21] = system: SNB-75 (CNS Cancer); assay: NCI60 screen (SRB); settings: 48 h; for growth percent: one dose 10 µM
[22] = system: U251 (CNS Cancer); assay: NCI60 screen (SRB); settings: 48 h; for growth percent: one dose 10 µM
[23] = system: MALME-3M (Melanoma); assay: NCI60 screen (SRB); settings: 48 h; for growth percent: one dose 10 µM
[24] = system: MDA-MB-435 (Melanoma); assay: NCI60 screen (SRB); settings: 48 h; for growth percent: one dose 10 µM
[25] = system: SK-MEL-2 (Melanoma); assay: NCI60 screen (SRB); settings: 48 h; for growth percent: one dose 10 µM
[26] = system: SK-MEL-28 (Melanoma); assay: NCI60 screen (SRB); settings: 48 h; for growth percent: one dose 10 µM
[27] = system: SK-MEL-5 (Melanoma); assay: NCI60 screen (SRB); settings: 48 h; for growth percent: one dose 10 µM
[28] = system: UACC-62 (Melanoma); assay: NCI60 screen (SRB); settings: 48 h; for growth percent: one dose 10 µM
[29] = system: IGROV1 (Ovarian Cancer); assay: NCI60 screen (SRB); settings: 48 h; for growth percent: one dose 10 µM
[30] = system: OVCAR-3 (Ovarian Cancer); assay: NCI60 screen (SRB); settings: 48 h; for growth percent: one dose 10 µM
[31] = system: NCI/ADR-RES (Ovarian Cancer); assay: NCI60 screen (SRB); settings: 48 h; for growth percent: one dose 10 µM
[32] = system: SK-OV-3 (Ovarian Cancer); assay: NCI60 screen (SRB); settings: 48 h; for growth percent: one dose 10 µM
[33] = system: CAKI-1 (Renal Cancer); assay: NCI60 screen (SRB); settings: 48 h
[34] = system: RXF 393 (Renal Cancer); assay: NCI60 screen (SRB); settings: 48 h; for growth percent: one dose 10 µM
[35] = system: SN12C (Renal Cancer); assay: NCI60 screen (SRB); settings: 48 h; for growth percent: one dose 10 µM
[36] = system: TK-10 (Renal Cancer); assay: NCI60 screen (SRB); settings: 48 h; for growth percent: one dose 10 µM
[37] = system: UO-31 (Renal Cancer); assay: NCI60 screen (SRB); settings: 48 h; for growth percent: one dose 10 µM
[38] = system: MDA-MB-231/ATCC (Breast Cancer); assay: NCI60 screen (SRB); settings: 48 h
[39] = system: HS 578T (Breast Cancer); assay: NCI60 screen (SRB); settings: 48 h; for growth percent: HS 578T, one dose 10 µM
[40] = system: T-47D (Breast Cancer); assay: NCI60 screen (SRB); settings: 48 h; for growth percent: one dose 10 µM
[41] = system: MDA-MB-468 (Breast Cancer); assay: NCI60 screen (SRB); settings: 48 h; for growth percent: one dose 10 µM
[42] = Homo sapiens, five-dose, read-out: IC50 (cell marked * in GI50 column)
[43] = Homo sapiens, five-dose, read-out: IC50 (cell marked * in GI50 column) (converted)

COc1ccc(/C=C/C(c2cc(OC)c(OC)c(OC)c2)n2cncn2)cc1O (stereo not drawn) [Compound 22b, (E)-5-(3-(1H-1,2,4-Triazol-1-yl)-3-(3,4,5-trimethoxyphenyl)prop-1-en-1-yl)-2-methoxyphenol]
GI50 ([1]; Homo sapiens, 48 h, five-dose, 48 h, read-out: MG-MID (mean of GI50 values over all cell lines)): 371 nM | GI50 ([1]; Homo sapiens, Figure 8, concentration in molar, read-out: Log 10 GI-50 Mean (converted)): 2140 nM | IC50 ([1]; Homo sapiens, Figure 8, concentration in molar, read-out: Log 10 IC-50 Mean (converted)): 2880 nM | LC50 (50% lethal concentration) ([1]; Homo sapiens, over all 60 cell lines, five-dose): > 100000 nM | GI50 ([1]; five-dose, 48 h, read-out: MG-MID (mean of GI50 values over all cell lines)): 372 nM | TGI (total growth inhibition) ([1]; over all 60 cell lines, five-dose): 57500 nM | mean growth percent ([1]; 48 h): 29.9% | mean growth percentage [2]: 29.1% | mean growth percentage [3]: 4.2% | growth percent [4]: 21.84% | GI50 ([5]; Homo sapiens, five-dose): 24.8 nM | growth percent [5]: 5.67% | GI50 ([6]; Homo sapiens, five-dose): 4560 nM | growth percent [6]: 40.13% | GI50 ([7]; Homo sapiens, five-dose): 6070 nM | growth percent [7]: 59.45% | GI50 ([8]; Homo sapiens, five-dose): 67000 nM | growth percent [8]: 47.98% | IC50 [9, 42]: > 100000 nM | growth percent [9]: 54.65% | GI50 ([10]; Homo sapiens, NCI-H460, 48 h): 42 nM | GI50 ([10]; 48 h): 42.3 nM | growth percent ([10]; 48 h): 13.26% | GI50 ([11]; Homo sapiens, NCI-H522, 48 h): 22 nM | GI50 ([11]; 48 h): 22.3 nM | growth percent ([11]; 48 h): 13.04% | GI50 ([12]; Homo sapiens, five-dose): 3660 nM | growth percent [12]: 60.64% | GI50 ([13]; Homo sapiens, five-dose): 3000 nM | growth percent [13]: 67.70% | GI50 ([14]; Homo sapiens, five-dose): 41 nM | growth percent [14]: 10.52% | GI50 ([15]; Homo sapiens, HT-29, five-dose): 3680 nM | growth percent [15]: 41.01% | GI50 ([16]; Homo sapiens, five-dose): 40.5 nM | growth percent [16]: 26.67% | GI50 ([17]; Homo sapiens, SW-620, 48 h): 39 nM | GI50 ([17]; 48 h): 39.4 nM | growth percent ([17]; 48 h): 27.62% | IC50 [18, 43]: 3720 nM | growth percent [18]: 1.43% | GI50 ([19]; Homo sapiens, five-dose): 26.7 nM | growth percent [19]: −4.58% | IC50 [20, 43]: 25700 nM | growth percent [20]: 34.19% | IC50 [21, 42]: > 100000 nM | growth percent [21]: 40.99% | GI50 ([22]; Homo sapiens, U-251, five-dose): 50.6 nM | growth percent [22]: 20.72% | IC50 [23, 42]: > 100000 nM | growth percent [23]: 54.35% | GI50 ([24]; Homo sapiens, five-dose): 18.3 nM | growth percent [24]: −32.99% | GI50 ([25]; Homo sapiens, five-dose): 43.8 nM | growth percent [25]: 18.23% | GI50 ([26]; Homo sapiens, five-dose): 3620 nM | growth percent [26]: 59.08% | GI50 ([27]; Homo sapiens, five-dose): 45.8 nM | growth percent [27]: 23.87% | GI50 ([28]; Homo sapiens, five-dose): 47.6 nM | growth percent [28]: 37.50% | GI50 ([29]; Homo sapiens, IGROV-1, five-dose): 5830 nM | growth percent [29]: 50.48% | GI50 ([30]; Homo sapiens, five-dose): 26 nM | growth percent [30]: 15.65% | IC50 [31, 42]: 5250 nM | growth percent [31]: 10.82% | IC50 [32, 42]: > 100000 nM | growth percent [32]: 12.67% | GI50 ([33]; Homo sapiens, five-dose): 2830 nM | growth percent ([33]; one dose 10 µM): 34.50% | IC50 [34, 42]: > 100000 nM | growth percent [34]: −16.94% | GI50 ([35]; Homo sapiens, five-dose): 7190 nM | growth percent [35]: 49.61% | GI50 ([36]; Homo sapiens, five-dose): 21200 nM | growth percent [36]: 41.24% | IC50 [37, 42]: > 100000 nM | growth percent [37]: 54.20% | GI50 ([38]; Homo sapiens, five-dose): 3020 nM | growth percent [39]: 28.47% | IC50 ([39]; Homo sapiens, Hs-578T, read-out: IC50 (cell marked * in GI50 column)): > 100000 nM | GI50 ([40]; Homo sapiens, T47D, five-dose): > 100000 nM | growth percent [40]: 34.38% | IC50 [41, 42]: > 100000 nM | growth percent [41]: 8.27%

COc1cc(/C=C/C(/C=C/c2cc(OC)c(OC)c(OC)c2)n2ccnc2)cc(OC)c1OC [Compound 30, 1-((1E,4E)-1,5-bis(3,4,5-trimethoxyphenyl)penta-1,4-dien-3-yl)-1H-imidazole]
mean growth percent ([1]; 48 h): 81.3% | mean growth percentage [2]: 71.5% | mean growth percentage [3]: 60.5% | growth percent [4]: 74.07% | growth percent [5]: 31.50% | growth percent [6]: 78.93% | growth percent [7]: 94.43% | growth percent [8]: 56.24% | growth percent [9]: 96.68% | growth percent ([10]; 48 h): 93.96% | growth percent ([11]; 48 h): 64.75% | growth percent [12]: 99.42% | growth percent [13]: 99.87% | growth percent [14]: 78.18% | growth percent [15]: 80.30% | growth percent [16]: 82.35% | growth percent ([17]; 48 h): 88.00% | growth percent [18]: 95.73% | growth percent [19]: 93.55% | growth percent [20]: 89.08% | growth percent [21]: 54.99% | growth percent [22]: 81.64% | growth percent [23]: 93.80% | growth percent [24]: 45.63% | growth percent [25]: 81.02% | growth percent [26]: 100.52% | growth percent [27]: 62.09% | growth percent [28]: 68.23% | growth percent [29]: 78.02% | growth percent [30]: 83.41% | growth percent [31]: 89.35% | growth percent [32]: 92.06% | growth percent [34]: 88.15% | growth percent [35]: 84.52% | growth percent [36]: 115.50% | growth percent [37]: 66.56% | growth percent ([38]; one dose 10 µM): 76.21% | growth percent [39]: 77.21% | growth percent [40]: 77.54% | growth percent [41]: 57.22%
